# What was measured:
# [1] = target: T1, human PPAR δ (Homo sapiens, UniProt Q03181); test: Luciferase assay using human PPAR δ (Gal4-PPAR chimeric receptor reporter in CV-1 cells); format: cell-based; details: relative to 30 μM carbacyclin defined as 1, 42 hours
# T1 construct: expressed in transfected cells; host or cells: CV-1 cells
# T1 sequence (Q03181 139-441): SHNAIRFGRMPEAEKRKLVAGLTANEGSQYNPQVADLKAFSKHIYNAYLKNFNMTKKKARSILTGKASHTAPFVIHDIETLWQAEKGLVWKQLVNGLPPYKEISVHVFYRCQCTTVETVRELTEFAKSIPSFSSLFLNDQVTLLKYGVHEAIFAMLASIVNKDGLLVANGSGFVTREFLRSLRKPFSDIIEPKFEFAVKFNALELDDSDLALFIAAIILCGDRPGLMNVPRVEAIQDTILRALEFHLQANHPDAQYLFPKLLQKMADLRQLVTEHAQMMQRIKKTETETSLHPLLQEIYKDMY
# [2] = system: 7-weeks old male mice; test: Lowering effect of blood cholesterol and blood lipid in mice loaded with high cholesterol diets; format: in vivo; details: high cholesterol diet mice, plasma, vehicle administration group defined as 100%
# Protocol: High cholesterol diets (CRF-1 solid pellet mixed of 5.5% peanut oil, 1.5% cholesterol, 0.5% cholic acid, Oriental Bio Service) are loaded to 7-weeks old male mice for six days and then the body weight of food-deprived […] are measured, the following various parameter levels are measured. The measurement items are LDL, HDL, TG level, NEFA, and TC level. Mice are divided into five per group based on TC level and the division was performed without bias in the average of other parameters. From the next day to six days in a row, the suspended solution of the compounds in vehicle (0.5% methylcellulose aqueous solution) are orally compellingly administered once daily and the loading of high cholesterol diets is continued. After the next day of termination of final administration (the 7th day of administration onset), plasma lipid (TG HDL, LDL, NEFA, TC level) is measured.
# The relative activity of the compounds of the present invention was calculated under the condition that the value of vehicle administration group was defined as 100%. And then HDL cholesterol elevating effect and LDL cholesterol lowering effect of the compound prepared in Example 33 are shown in Table 2.
# [3] = dose 3 mg/kg orally once daily for six days
# [4] = dose 10 mg/kg orally once daily for six days
# [5] = dose 30 mg/kg orally once daily for six days
structure (smiles),measurement,setting,value
"Cc1sc(N2CCC(C(F)(F)F)CC2)nc1CCOc1cccc(CC(=O)O)c1F [Example 33, [2-fluoro-3-(2-{5-methyl-2-[4-(trifluoromethyl)piperidin-1-yl]-1,3-thiazol-4-yl}ethoxy)phenyl]acetic acid]",Fold increase of transcriptional activation,[1]; final concentration 0.1 μM,0.47
same,Fold increase of transcriptional activation,[1]; final concentration 0.3 μM,1.08
same,Fold increase of transcriptional activation,[1]; final concentration 1.0 μM,1.23
same,HDL cholesterol elevating effect,[2]; [3],150.0%
same,LDL cholesterol lowering effect,[2]; [3],82.5%
same,HDL cholesterol elevating effect,[2]; [4],162.7%
same,LDL cholesterol lowering effect,[2]; [4],75.7%
same,HDL cholesterol elevating effect,[2]; [5],157.3%
same,LDL cholesterol lowering effect,[2]; [5],72.3%
